Experimental data reported in patent publication US4604239A, “Antibiotics” (Eli Lilly and Company, priority 1985, dated 1986).

System: Peptococcus asaccharolyticus
Assay: agar-dilution MIC
Assay type: cell-based
Details: Peptococcus asaccharolyticus 1302; Table 14
Experimental: The MIC values were determined by the agar-dilution method, and are recorded in Table 15, which follows.
In the case of A41030 factor G, the MIC is reported as 1.0 µg/mL.

System: Clostridium perfringens
Assay: not given
Assay type: cell-based
Details: Clostridium perfringens 81; Table 14
A41030 factor D showed an MIC of 0.5 µg/mL. For A41030 factor G, the MIC was 2 µg/mL.

System: Bacteroides vulgatis
Assay: agar-dilution MIC
Assay type: cell-based
Details: Bacteroides vulgatis 1211; Table 14
A41030 factor D gave an MIC of 32 µg/mL. A41030 factor G showed an MIC of 64 µg/mL.

System: Peptococcus prevoti
Assay: agar-dilution MIC
Assay type: cell-based
Details: Peptococcus prevoti 1281; Table 14
Substance A41030 factor D has an MIC of 0.25 µg/mL. In the case of A41030 factor G, the MIC is reported as 2 µg/mL.

System: Escherichia coli
Assay: agar-dilution MIC
Assay type: cell-based
Details: Escherichia coli TEM; Table 17
From the text: (§1) The results after reading the which follows.
Work on A41030 factor D yielded an MIC of 64 µg/mL.

System: Klebsiella pneumoniae
Assay: agar-dilution MIC
Assay type: cell-based
Details: Klebsiella pneumoniae X26; Table 17
From the text: as §1
In the case of A41030 factor G, the MIC is reported as 64 µg/mL.

System: Bacteroides melaninogenicus
Assay: agar-dilution MIC
Assay type: cell-based
Details: Bacteroides melaninogenicus 1856/28; Table 14
In the case of A41030 factor D, the MIC is reported as > 64 µg/mL.

Same assay, conditions: Bacteroides melaninogenicus 2736; Table 14
With A41030 factor D the MIC was 0.5 µg/mL. In the case of A41030 factor G, the MIC is reported as 64 µg/mL.

System: Peptostreptococcus anaerobius
Assay: agar-dilution MIC
Assay type: cell-based
Details: Peptostreptococcus anaerobius 1428; Table 14
A41030 factor D showed an MIC of 0.5 µg/mL. For A41030 factor G, the MIC was ≤ 0.5 µg/mL.

System: Bacteroides fragilis
Assay: agar-dilution MIC
Assay type: cell-based
Details: Bacteroides fragilis 111; Table 14
From the text: (§2) The agar-dilution procedure described by the International Collaborative study (ICS) group was used to determine the minimum inhibitory concentrations (MIC's).
Work on A41030 factor D yielded an MIC of 32 µg/mL. With A41030 factor G the MIC was 32 µg/mL.

Same assay, conditions: Bacteroides fragilis 1877; Table 14
Work on A41030 factor D yielded an MIC of 32 µg/mL. A41030 factor G showed an MIC of 32 µg/mL.

Same assay, conditions: Bacteroides fragilis 1936B; Table 14
For A41030 factor D, the MIC was 32 µg/mL. In the case of A41030 factor G, the MIC is reported as 64 µg/mL.

System: Staphylococcus epidermidis
Assay: agar-dilution MIC
Assay type: cell-based
Details: Staphylococcus epidermidis EPI1; Table 17
From the text: as §2
Work on A41030 factor D yielded an MIC of 0.25 µg/mL. For A41030 factor G, the MIC was 0.5 µg/mL.

Same assay, conditions: Staphylococcus epidermidis EPI2; Table 17
Substance A41030 factor D has an MIC of 1 µg/mL. Work on A41030 factor G yielded an MIC of 0.5 µg/mL.

System: Streptococcus pyogenes
Assay: agar-dilution MIC
Assay type: cell-based
Details: Streptococcus pyogenes C203; Table 17
From the text: as §2
A41030 factor D showed an MIC of 0.5 µg/mL. A41030 factor G showed an MIC of 2 µg/mL.

System: Streptococcus sp. (Group D)
Assay: agar-dilution MIC
Assay type: cell-based
Details: Streptococcus sp. Group D 9960; Table 17
From the text: as §2
For A41030 factor D, the MIC was 1 µg/mL. In the case of A41030 factor G, the MIC is reported as 4 µg/mL.

Same assay, conditions: Streptococcus sp. Group D X66; Table 17
For A41030 factor D, the MIC was 1 µg/mL. A41030 factor G gave an MIC of 4 µg/mL.

System: Streptococcus pneumoniae
Assay: agar-dilution MIC
Assay type: cell-based
Details: Streptococcus pneumoniae Park I; Table 17
From the text: as §2
A41030 factor D gave an MIC of 0.5 µg/mL. Work on A41030 factor G yielded an MIC of 2 µg/mL.

System: Clostridium septicum
Assay: agar-dilution MIC
Assay type: cell-based
Details: Clostridium septicum 1128; Table 14
Substance A41030 factor D has an MIC of 0.25 µg/mL. With A41030 factor G the MIC was 2 µg/mL.

System: Fusobacterium necrophorum
Assay: agar-dilution MIC
Assay type: cell-based
Details: Fusobacterium necrophorum 6054A; Table 14
For A41030 factor G, the MIC was 2 µg/mL.

System: Bacteroides thetaiotaomicron
Assay: not given
Assay type: cell-based
Details: Bacteroides thetaiotaomicron 1438; Table 14
From the text: as §2
With A41030 factor D the MIC was 32 µg/mL. With A41030 factor G the MIC was 64 µg/mL.

System: Staphylococcus aureus
Assay: agar-dilution MIC
Assay type: cell-based
Details: Staphylococcus aureus S13E; Table 17
Substance A41030 factor D has an MIC of 0.25 µg/mL.

System: not listed separately
Assay: electrometric titration
Assay type: physicochemical
Details: electrometric titration in 66% dimethylformamide in water
From the text: Antibiotic A41030 factor A is a white, crystalline solid.
With A41030 factor D the “possibly additional pKa's” value was > 10. In the case of A41030 factor G, the “possibly additional pKa's” value is reported as > 10.5.

System: Clostridium difficile
Assay: not given
Assay type: cell-based
Details: Clostridium difficile 78; Table 16
For A41030 factor D, the MIC was ≤ 0.25 µg/mL. A41030 factor G showed an MIC of 1.0 µg/mL.

Same assay, conditions: Clostridium difficile 107B; Table 16
For A41030 factor D, the MIC was ≤ 0.25 µg/mL. Work on A41030 factor G yielded an MIC of 1.0 µg/mL.

Same assay, conditions: Clostridium difficile 111F; Table 16
In the case of A41030 factor D, the MIC is reported as ≤ 0.25 µg/mL. Work on A41030 factor G yielded an MIC of 1.0 µg/mL.

Same assay, conditions: Clostridium difficile 1153; Table 16
A41030 factor D gave an MIC of 1.0 µg/mL. A41030 factor G gave an MIC of 1.0 µg/mL.

Same assay, conditions: Clostridium difficile 2634; Table 16
A41030 factor D gave an MIC of 0.5 µg/mL. With A41030 factor G the MIC was 1.0 µg/mL.

Same assay, conditions: Clostridium difficile 2994; Table 14
For A41030 factor G, the MIC was 2 µg/mL.

Same assay, conditions: Clostridium difficile 3424-5B; Table 16
A41030 factor D gave an MIC of 0.5 µg/mL. Substance A41030 factor G has an MIC of 1.0 µg/mL.

Same assay, conditions: Clostridium difficile 3816; Table 16
For A41030 factor D, the MIC was 0.5 µg/mL. With A41030 factor G the MIC was 1.0 µg/mL.

Same assay, conditions: Clostridium difficile 3950D; Table 16
For A41030 factor G, the MIC was 1.0 µg/mL.

Same assay, conditions: Clostridium difficile 6890; Table 16
Work on A41030 factor D yielded an MIC of 0.5 µg/mL. Substance A41030 factor G has an MIC of 1.0 µg/mL.

Same assay, conditions: Clostridium difficile 8484; Table 16
With A41030 factor D the MIC was ≤ 0.25 µg/mL. For A41030 factor G, the MIC was 1.0 µg/mL.

Same assay, conditions: Clostridium difficile A-194; Table 16
For A41030 factor D, the MIC was ≤ 0.25 µg/mL. Work on A41030 factor G yielded an MIC of 1.0 µg/mL.

Same assay, conditions: Clostridium difficile A-195; Table 16
For A41030 factor D, the MIC was ≤ 0.25 µg/mL. Work on A41030 factor G yielded an MIC of 1.0 µg/mL.

Same assay, conditions: Clostridium difficile A-196; Table 16
A41030 factor D showed an MIC of 0.5 µg/mL. For A41030 factor G, the MIC was 1.0 µg/mL.

Same assay, conditions: Clostridium difficile A-279; Table 16
In the case of A41030 factor D, the MIC is reported as ≤ 0.25 µg/mL. A41030 factor G gave an MIC of 1.0 µg/mL.

Same assay, conditions: Clostridium difficile A-280; Table 16
With A41030 factor D the MIC was ≤ 0.25 µg/mL.

Same assay, conditions: Clostridium difficile A-281; Table 16
In the case of A41030 factor D, the MIC is reported as 0.5 µg/mL. Substance A41030 factor G has an MIC of 1.0 µg/mL.

Same assay, conditions: Clostridium difficile WAL-2112; Table 16
With A41030 factor D the MIC was ≤ 0.25 µg/mL. Substance A41030 factor G has an MIC of 1.0 µg/mL.

Same assay, conditions: Clostridium difficile WAL-3657; Table 16
For A41030 factor D, the MIC was ≤ 0.25 µg/mL. For A41030 factor G, the MIC was 1.0 µg/mL.

Same assay, conditions: Clostridium difficile WAL-4268; Table 16
With A41030 factor D the MIC was ≤ 0.25 µg/mL. Substance A41030 factor G has an MIC of 1.0 µg/mL.

System: Bacteroides corrodens
Assay: agar-dilution MIC
Assay type: cell-based
Details: Bacteroides corrodens 1874; Table 14
Substance A41030 factor D has an MIC of 32 µg/mL. For A41030 factor G, the MIC was 32 µg/mL.

System: not listed separately
Assay: solubility
Assay type: physicochemical
Details: not given
In the case of A41030 factor D, the “solubility (solvents)” value is reported as “soluble in the same solvents as factor A”. For A41030 factor G, the “solubility (solvents)” value was “soluble in the same solvents as is factor A”.

System: Eubacterium aerofaciens
Assay: agar-dilution MIC
Assay type: cell-based
Details: Eubacterium aerofaciens 1235; Table 14
For A41030 factor D, the MIC was 0.5 µg/mL. In the case of A41030 factor G, the MIC is reported as 2 µg/mL.

System: Fusobacterium symbiosum
Assay: agar-dilution MIC
Assay type: cell-based
Details: Fusobacterium symbiosum 1470; Table 14
A41030 factor D showed an MIC of 0.5 µg/mL. In the case of A41030 factor G, the MIC is reported as 2 µg/mL.

System: Hemophilus influenzae
Assay: agar-dilution MIC
Assay type: cell-based
Details: Haemophilus influenzae 76; Table 17
Substance A41030 factor D has an MIC of 8 µg/mL. For A41030 factor G, the MIC was 32 µg/mL.

Same assay, conditions: Haemophilus influenzae C.L.; Table 17
With A41030 factor D the MIC was 8 µg/mL. For A41030 factor G, the MIC was 32 µg/mL.

System: Peptostreptococcus intermedius
Assay: agar-dilution MIC
Assay type: cell-based
Details: Peptostreptococcus intermedius 1264; Table 14
In the case of A41030 factor D, the MIC is reported as 1.0 µg/mL. A41030 factor G gave an MIC of 2 µg/mL.

System: Propionibacterium acnes
Assay: agar-dilution MIC
Assay type: cell-based
Details: Propionibacterium acnes 79; Table 14
From the text: Antibiotic A41030 factors A, B and C have also been tested and found to be active against a genus of anaerobic bacteria identified as Propionibacterium acnes.
With A41030 factor D the MIC was 0.25 µg/mL. With A41030 factor G the MIC was 1.0 µg/mL.
